Counter-ions that a name gives are not always drawn.
Tests used:
BRD4-BD2 = BRD4-BD2 (Homo sapiens (Human), UniProt O60885); test: BRD4 AlphaScreen assay, BRD4-BD2; type: binding; details: biotin-labeled tetra-acetylated histone H4 peptide, 75 min, room temperature, read-out: BRD4 BD-2 enzyme IC50
Description: (§1) BRD4-BD1 and BRD4-BD2 assays were conducted in white 384-well polystyrene plate in a final volume of 20 μL for BD1 and 40 μL for BD2. Inhibitors were first serially diluted in DMSO and added to the plate wells before the addition of other reaction components. The final concentration of DMSO in the assay was 1.25% (BD1) and 0.83% (BD2). The assays were carried out at room temperature for 75 min. in the assay buffer (50 mM HEPES, pH 7.4, 100 mM NaCl, 0.05% CHAPS, 0.01% BSA), containing 50 nM Biotin-labeled tetra-acetylated histone H4 peptide (H4Ac4), 3.8 nM (BRD4-BD1, BPS Bioscience #31040) or 20 nM (BRD4-BD2, BPS Bioscience #31041). The reaction followed by the addition of 20 μL of assay buffer supplemented with Streptavidin donor beads (PerkinElmer 6760002) and GSH Acceptor beads (PerkinElmer-AL109C) at 4 μg/mL under reduced light. After plate sealing, the plate was incubated in the dark at room temperature for 75 min. before reading on a PHERAstar FS plate reader (BMG Labtech). IC50 determination was performed by fitting the curve of percent control activity versus the log of the inhibitor concentration using the GraphPad Prism 5.0 software.

BRD4-BD1 = BRD4-BD1 (Homo sapiens (Human), UniProt O60885); test: BRD4 AlphaScreen assay, BRD4-BD1; type: binding; details: biotin-labeled tetra-acetylated histone H4 peptide, 75 min, room temperature, read-out: BRD4 BD-1 enzyme IC50
Description: as §1

Structure (SMILES) | IC50 (BRD4-BD2) [nM] | IC50 (BRD4-BD1) [nM]
Cc1nnc2ccc3c(ccn3C(C)c3ccccc3)n12 (racemic) [Example 4, 1-methyl-6-(1-phenylethyl)-6H-pyrrolo[2,3-e][1,2,4]triazolo[4,3-a]pyridine] | ≤ 100 | 100 to 1000
CCCCC(c1ccccc1)n1c(C)cc2c1ccc1nnc(C)n12 (racemic) [Example 24, 1,7-dimethyl-6-(1-phenylpentyl)-6H-pyrrolo[2,3-e][1,2,4]triazolo[4,3-a]pyridine] | 100 to 1000 | 100 to 1000
Cc1cc2c(ccc3nnc(C)n32)n1C(CO)c1ccccc1 (racemic) [Example 29, 2-(1,7-dimethyl-6H-pyrrolo[2,3-e][1,2,4]triazolo[4,3-a]pyridin-6-yl)-2-phenylethanol] | 100 to 1000 | 100 to 1000
Cc1nnc2ccc3c(cc(-c4ccn(C(C)CC#N)n4)n3Cc3ccccc3)n12 (racemic) [Example 87, 3-[3-(6-benzyl-1-methyl-6H-pyrrolo[2,3-e][1,2,4]triazolo[4,3-a]pyridin-7-yl)-1H-pyrazol-1-yl]butanenitrile Trifluoroacetate Salt] | ≤ 100 | ≤ 100
Cc1nnc2ccc3c(cc(-c4ccn(CC(C)C#N)n4)n3Cc3ccccc3)n12 (racemic) [Example 88, 3-[3-(6-benzyl-1-methyl-6H-pyrrolo[2,3-e][1,2,4]triazolo[4,3-a]pyridin-7-yl)-1H-pyrazol-1-yl]-2-methylpropanenitrile Trifluoroacetate Salt] | ≤ 100 | ≤ 100
Cc1cc2c(cc(NC3CCCN(C)C3)c3nnc(C)n32)n1Cc1ccccc1 (racemic) [Example 144, 6-benzyl-1,7-dimethyl-N-(1-methylpiperidin-3-yl)-6H-pyrrolo[2,3-e][1,2,4]triazolo[4,3-a]pyridin-4-amine] | ≤ 100 | ≤ 100
Cc1cc2c(cc(NC3CCN(C)C3)c3nnc(C)n32)n1Cc1ccccc1 (racemic) [Example 145, 6-benzyl-1,7-dimethyl-N-(1-methylpyrrolidin-3-yl)-6H-pyrrolo[2,3-e][1,2,4]triazolo[4,3-a]pyridin-4-amine bis(trifluoroacetate) Salt] | ≤ 100 | ≤ 100
Cc1nnc2ccc3c(cc(C4CCNC4)n3Cc3ccccc3)n12 (racemic) [Example 186, 6-Benzyl-1-methyl-7-pyrrolidin-3-yl-6H-pyrrolo[2,3-e][1,2,4]triazolo[4,3-a]pyridine bis(trifluoroacetate) Salt] | 100 to 1000 | 1000 to 10000
CC(=O)N1CCC(c2cc3c(ccc4nnc(C)n43)n2Cc2ccccc2)C1 (racemic) [Example 187, 7-(1-Acetylpyrrolidin-3-yl)-6-benzyl-1-methyl-6H-pyrrolo[2,3-e][1,2,4]triazolo[4,3-a]pyridine Trifluoroacetate Salt] | 1000 to 10000 | 1000 to 10000
Cc1nnc2ccc3c(cc(-c4ncco4)n3Cc3cc(Cl)cc(CN4CCC(O)C4)c3)n12 (racemic) [Example 199, 1-(3-Chloro-5-{[1-methyl-7-(1,3-oxazol-2-yl)-6H-pyrrolo[2,3-e][1,2,4]triazolo[4,3-a]pyridin-6-yl]methyl}benzyl)pyrrolidin-3-ol bis(trifluoroacetate) Salt (Racemic)] | ≤ 100 | ≤ 100
Cc1cc2c(cc(N[C@H]3CCN(C)[C@H](C)C3)c3nnc(C)n32)n1Cc1ccccc1 (racemic) [Example 225, 6-Benzyl-N-[(2R,4S)-1,2-dimethylpiperidin-4-yl]-1,7-dimethyl-6H-pyrrolo[2,3-e][1,2,4]triazolo[4,3-a]pyridin-4-amine and 6-Benzyl-N-[(2S,4R)-1,2-dimethylpiperidin-4-yl]-1,7-dimethyl-6H-pyrrolo[2,3-e][1,2,4]triazolo[4,3-a]pyridin-4-amine] | ≤ 100 | ≤ 100
Cc1cc2c(cc(NC3CCC(C#N)CC3)c3nnc(C)n32)n1Cc1ccccc1 (single isomer, unassigned) [Example 215 a, 4-[(6-benzyl-1,7-dimethyl-6H-pyrrolo[2,3-e][1,2,4]triazolo[4,3-a]pyridin-4-yl)amino]cyclohexanecarbonitrile Trifluoroacetate Salt] | ≤ 100 | 100 to 1000
Cc1cc2c(cc(N[C@H]3CC[C@@H](C#N)CC3)c3nnc(C)n32)n1Cc1ccccc1 (single isomer, unassigned) [Example 215 b, 4-[(6-benzyl-1,7-dimethyl-6H-pyrrolo[2,3-e][1,2,4]triazolo[4,3-a]pyridin-4-yl)amino]cyclohexanecarbonitrile Trifluoroacetate Salt] | ≤ 100 | ≤ 100
Cc1nnc2ccc3c(ccn3Cc3ccccc3)n12 [Example 1, 6-benzyl-1-methyl-6H-pyrrolo[2,3-e][1,2,4]triazolo[4,3-a]pyridine] | ≤ 100 | 100 to 1000
Cc1cc2c(ccc3nnc(C)n32)n1Cc1ccccc1 [Example 2, 6-benzyl-1,7-dimethyl-6H-pyrrolo[2,3-e][1,2,4]triazolo[4,3-a]pyridine] | ≤ 100 | ≤ 100
Cc1cc2c(ccc3nnc(C)n32)n1S(=O)(=O)c1ccccc1 [Example 2a, 1,7-dimethyl-6-(phenylsulfonyl)-6H-pyrrolo[2,3-e][1,2,4]triazolo[4,3-a]pyridine] | 100 to 1000 | –

Structure (SMILES) | IC50 (BRD4-BD2) [nM] | IC50 (BRD4-BD1) [nM]
Cc1nnc2ccc3c(ccn3S(=O)(=O)c3ccccc3)n12 [Example 3, 1-methyl-6-(phenylsulfonyl)-6H-pyrrolo[2,3-e][1,2,4]triazolo[4,3-a]pyridine] | 100 to 1000 | 100 to 1000
Cc1cc2c(ccc3nnc(C)n32)n1CCc1ccccc1 [Example 6, 1,7-dimethyl-6-(2-phenylethyl)-6H-pyrrolo[2,3-e][1,2,4]triazolo[4,3-a]pyridine] | 100 to 1000 | 100 to 1000
Cc1cc2c(ccc3nnc(C)n32)n1Cc1ccccn1 [Example 7, 1,7-dimethyl-6-(pyridin-2-ylmethyl)-6H-pyrrolo[2,3-e][1,2,4]triazolo[4,3-a]pyridine] | 100 to 1000 | 100 to 1000
Cc1cc2c(ccc3nnc(C)n32)n1Cc1ccccc1Cl [Example 8, 6-(2-chlorobenzyl)-1,7-dimethyl-6H-pyrrolo[2,3-e][1,2,4]triazolo[4,3-a]pyridine] | ≤ 100 | 100 to 1000
Cc1cc2c(ccc3nnc(C)n32)n1Cc1cccc(Cl)c1 [Example 9, 6-(3-chlorobenzyl)-1,7-dimethyl-6H-pyrrolo[2,3-e][1,2,4]triazolo[4,3-a]pyridine] | ≤ 100 | ≤ 100
Cc1cc2c(ccc3nnc(C)n32)n1Cc1ccc(Cl)cc1 [Example 10, 6-(4-chlorobenzyl)-1,7-dimethyl-6H-pyrrolo[2,3-e][1,2,4]triazolo[4,3-a]pyridine] | ≤ 100 | ≤ 100
Cc1cc2c(ccc3nnc(C)n32)n1Cc1cccnc1 [Example 11, 1,7-dimethyl-6-(pyridin-3-ylmethyl)-6H-pyrrolo[2,3-e][1,2,4]triazolo[4,3-a]pyridine] | 100 to 1000 | 100 to 1000
Cc1cc2c(ccc3nnc(C)n32)n1Cc1ccncc1 [Example 12, 1,7-dimethyl-6-(pyridin-4-ylmethyl)-6H-pyrrolo[2,3-e][1,2,4]triazolo[4,3-a]pyridine] | 100 to 1000 | 100 to 1000
Cc1cc2c(ccc3nnc(C)n32)n1CC1CCCC1 [Example 13, 6-(cyclopentylmethyl)-1,7-dimethyl-6H-pyrrolo[2,3-e][1,2,4]triazolo[4,3-a]pyridine] | ≤ 100 | 100 to 1000
Cc1cc2c(ccc3nnc(C)n32)n1Cc1ccccc1F [Example 14, 6-(2-fluorobenzyl)-1,7-dimethyl-6H-pyrrolo[2,3-e][1,2,4]triazolo[4,3-a]pyridine] | ≤ 100 | ≤ 100
Cc1cc2c(ccc3nnc(C)n32)n1Cc1cccc(F)c1 [Example 15, 6-(3-fluorobenzyl)-1,7-dimethyl-6H-pyrrolo[2,3-e][1,2,4]triazolo[4,3-a]pyridine] | ≤ 100 | ≤ 100
Cc1cc2c(ccc3nnc(C)n32)n1Cc1ccc(F)cc1 [Example 16, 6-(4-fluorobenzyl)-1,7-dimethyl-6H-pyrrolo[2,3-e][1,2,4]triazolo[4,3-a]pyridine] | ≤ 100 | ≤ 100
Cc1ccccc1Cn1c(C)cc2c1ccc1nnc(C)n12 [Example 17, 1,7-dimethyl-6-(2-methylbenzyl)-6H-pyrrolo[2,3-e][1,2,4]triazolo[4,3-a]pyridine] | ≤ 100 | ≤ 100
Cc1cccc(Cn2c(C)cc3c2ccc2nnc(C)n23)c1 [Example 18, 1,7-dimethyl-6-(3-methylbenzyl)-6H-pyrrolo[2,3-e][1,2,4]triazolo[4,3-a]pyridine] | ≤ 100 | ≤ 100
Cc1ccc(Cn2c(C)cc3c2ccc2nnc(C)n23)cc1 [Example 19, 1,7-dimethyl-6-(4-methylbenzyl)-6H-pyrrolo[2,3-e][1,2,4]triazolo[4,3-a]pyridine] | ≤ 100 | ≤ 100
Cc1cc2c(ccc3nnc(C)n32)n1Cc1cccc(C#N)c1 [Example 20, 3-[(1,7-dimethyl-6H-pyrrolo[2,3-e][1,2,4]triazolo[4,3-a]pyridine-6-yl)methyl]benzonitrile] | ≤ 100 | 100 to 1000
